For the test, the system named is BDF1 mice, P388 leukemia ip, median survival T/C. The test can be described thus: NCI In Vivo Anticancer Drug Screen. Data for tumor model P388 Leukemia (intraperitoneal) in B6D2F1 (BDF1) mice. The settings on record: endpoint: median survival time, higher = longer survival. The procedure, abridged: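 Antitumour effect was judged in vivo: survival in drug-treated mice, normalised to that of vehicle-dosed controls, gives the reported T/C.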

Setting [1] is: dose: 25.0 mg/kg/injection, schedule: Q01DX009 (ip), vehicle: Klucel (hydroxypropylcellulose) (HPC).
The mark [2] stands for this setting: dose: 25.0 mg/kg/injection, schedule: Q01DX009 (ip), vehicle: saline.
The mark [3] stands for this setting: dose: 50.0 mg/kg/injection, schedule: Q01DX009 (ip), vehicle: saline.
[4] abbreviates: dose: 400.0 mg/kg/injection, schedule: Q01DX009 (ip), vehicle: Klucel (hydroxypropylcellulose) (HPC).
[5] abbreviates: dose: 100.0 mg/kg/injection, schedule: Q01DX009 (ip), vehicle: saline with Tween-80.
Where [6] appears, read: dose: 100.0 mg/kg/injection, schedule: Q04DX003 (ip), vehicle: saline with Tween-80.
Setting [7] is: dose: 200.0 mg/kg/injection, schedule: Q01DX009 (ip), vehicle: saline with Tween-80.
[8] abbreviates: dose: 200.0 mg/kg/injection, schedule: Q04DX003 (ip), vehicle: saline with Tween-80.
Setting [9] is: dose: 400.0 mg/kg/injection, schedule: Q04DX003 (ip), vehicle: saline with Tween-80.

This note sets out measurements from PubChem BioAssay AID328 (DTP/NCI, 2004).

Values joined by “and” are separate entries in the source; they are usually repeats but may differ in a detail not shown here. Equal entries are not always repeated. Toxic doses and inconclusive results are not listed.

With `NC(CSC(c1ccccc1)(c1ccccc1)c1ccc(CO)cc1)C(=O)O` (stereo not given), the T/C was 100 % of control (dose: 3.0 mg/kg/injection, schedule: Q01DX009 (ip), vehicle: Klucel (hydroxypropylcellulose) (HPC)); 113 % of control (dose: 6.0 mg/kg/injection, schedule: Q01DX009 (ip), vehicle: Klucel (hydroxypropylcellulose) (HPC)); 122 % of control (dose: 12.0 mg/kg/injection, schedule: Q01DX009 (ip), vehicle: Klucel (hydroxypropylcellulose) (HPC)); 109 % of control (dose: 12.0 mg/kg/injection, schedule: Q01DX009 (ip), vehicle: saline); 100 % of control (dose: 12.0 mg/kg/injection, schedule: Q04DX003 (ip), vehicle: saline); 150 % of control under setting [1]. In addition, the T/C was 159 % of control under setting [2]; 103 % of control (dose: 25.0 mg/kg/injection, schedule: Q04DX003 (ip), vehicle: saline); 168 % of control (dose: 50.0 mg/kg/injection, schedule: Q01DX009 (ip), vehicle: Klucel (hydroxypropylcellulose) (HPC)); 163 % of control under setting [3]; 111 % of control (dose: 50.0 mg/kg/injection, schedule: Q04DX003 (ip), vehicle: saline); 159 % of control (dose: 75.0 mg/kg/injection, schedule: Q01DX009 (ip), vehicle: Klucel (hydroxypropylcellulose) (HPC)). The T/C (dose: 150.0 mg/kg/injection, schedule: Q01DX009 (ip), vehicle: Klucel (hydroxypropylcellulose) (HPC)) is 154 % of control; the T/C (dose: 300.0 mg/kg/injection, schedule: Q01DX009 (ip), vehicle: Klucel (hydroxypropylcellulose) (HPC)) was 259 % of control; the T/C under setting [4] is 272 % of control; the T/C (dose: 400.0 mg/kg/injection, schedule: Q04DX003 (ip), vehicle: saline) was 155 % of control.

In the case of `O=C(c1cccnc1)C1Cc2ccccc2C1=O` (stereo not given), the T/C is, setting by setting: under setting [5], 100 % of control; under setting [6], 100 % of control; under setting [7], 100 % of control; under setting [8], 100 % of control; (dose: 400.0 mg/kg/injection, schedule: Q01DX009 (ip), vehicle: saline with Tween-80) 91 % of control; under setting [9], 104 % of control.

As to `c1ccc2sc(SNC3CCCCC3)nc2c1`, the T/C is, setting by setting: (dose: 200.0 mg/kg/injection, schedule: Q04DX002 (ip), vehicle: saline) 103 % of control; (dose: 400.0 mg/kg/injection, schedule: Q04DX002 (ip), vehicle: saline) 122 % of control.

Turning to `O=C(CC(O)(C(F)(F)Cl)C(F)(F)Cl)c1cccs1`, the T/C (dose: 100.0 mg/kg/injection, schedule: Q01DX001 (ip), vehicle: saline with Tween-80) was 95 % of control; the T/C (dose: 200.0 mg/kg/injection, schedule: Q01DX001 (ip), vehicle: saline with Tween-80) was 100 % of control; the T/C (dose: 400.0 mg/kg/injection, schedule: Q01DX001 (ip), vehicle: saline with Tween-80) is 100 % of control.

Take `CCOC(=O)C(=CC(CC)(C(=O)OCC)C(=O)OCC)C(=O)OCC`: the T/C (dose: 100.0 mg/kg/injection, schedule: Q01DX009 (ip), vehicle: saline) was 95 % of control; the T/C (dose: 200.0 mg/kg/injection, schedule: Q01DX009 (ip), vehicle: saline) is 104 % of control; the T/C (dose: 400.0 mg/kg/injection, schedule: Q01DX009 (ip), vehicle: saline) was 104 % of control.

Turning to `CN(N=O)C(=O)NC(N)=O`, the T/C is 99 % of control (dose: 1.5 mg/kg/injection, schedule: Q01DX009 (ip), vehicle: saline); 115 % of control (dose: 2.3 mg/kg/injection, schedule: Q01DX009 (ip), vehicle: saline); 152 % of control (dose: 5.4 mg/kg/injection, schedule: Q01DX009 (ip), vehicle: saline); 161 % of control (dose: 11.0 mg/kg/injection, schedule: Q01DX009 (ip), vehicle: Klucel (hydroxypropylcellulose) (HPC)); 118 % of control (dose: 12.0 mg/kg/injection, schedule: Q04DX003 (ip), vehicle: Klucel (hydroxypropylcellulose) (HPC)); 155 % of control (dose: 12.5 mg/kg/injection, schedule: Q01DX009 (ip), vehicle: Klucel (hydroxypropylcellulose) (HPC)). For the same compound, the T/C is 165 % of control and 174 % of control (dose: 12.5 mg/kg/injection, schedule: Q01DX009 (ip), vehicle: saline); 186 % of control (dose: 16.0 mg/kg/injection, schedule: Q01DX009 (ip), vehicle: Klucel (hydroxypropylcellulose) (HPC)); 250 % of control and 161 % of control (dose: 16.5 mg/kg/injection, schedule: Q01DX009 (ip), vehicle: Klucel (hydroxypropylcellulose) (HPC)); 170 % of control (dose: 18.0 mg/kg/injection, schedule: Q01DX009 (ip), vehicle: saline); 122 % of control (dose: 22.0 mg/kg/injection, schedule: Q04DX003 (ip), vehicle: Klucel (hydroxypropylcellulose) (HPC)); 159 % of control and 207 % of control under setting [1]. The T/C by setting is: (dose: 37.5 mg/kg/injection, schedule: Q01DX009 (ip), vehicle: Klucel (hydroxypropylcellulose) (HPC)) 100 % of control and 105 % of control; under setting [3], 105 % of control; (dose: 50.0 mg/kg/injection, schedule: Q04DX003 (ip), vehicle: Klucel (hydroxypropylcellulose) (HPC)) 200 % of control; (dose: 75.0 mg/kg/injection, schedule: Q04DX003 (ip), vehicle: Klucel (hydroxypropylcellulose) (HPC)) 122 % of control.

For `NNC(=O)[C@H]1CC[C@H]1C(=O)NN`, the T/C is 95 % of control under setting [2] and 109 % of control under setting [3].

Take `Nc1nc(N)c2ncc(/C=C/c3ccc(Cl)c(Cl)c3)nc2n1`: the T/C under setting [6] was 91 % of control, the T/C under setting [8] is 90 % of control and the T/C under setting [9] was 108 % of control.

Regarding `Cc1cc(C)c(NS(=O)(=O)c2ccccc2)c(C)n1`, the T/C is 100 % of control under setting [6], 91 % of control under setting [8] and 91 % of control under setting [9].

For the compound `CCC1CCCCN1C(=S)N/N=C(\C)c1ccccn1` (stereo not given), the T/C was 102 % of control (dose: 3.12 mg/kg/injection, schedule: Q04DX003 (ip), vehicle: saline with Tween-80) and 114 % of control (dose: 12.5 mg/kg/injection, schedule: Q04DX003 (ip), vehicle: saline with Tween-80).

As to `COC(=O)C1=C(C)NC(C)=C(C(=O)OC)C1C(C)SC#N` (stereo not given), the T/C was 107 % of control (dose: 50.0 mg/kg/injection, schedule: Q01DX009 (ip), vehicle: saline with Tween-80); 109 % of control under setting [5]; 97 % of control under setting [7].

For `Cc1ccn(C(=O)CC#N)n1`, the T/C by setting is: (dose: 75.0 mg/kg/injection, schedule: Q01DX009 (ip), vehicle: saline with Tween-80) 91 % of control; (dose: 150.0 mg/kg/injection, schedule: Q01DX009 (ip), vehicle: saline with Tween-80) 97 % of control; (dose: 300.0 mg/kg/injection, schedule: Q01DX009 (ip), vehicle: saline with Tween-80) 92 % of control.

As to `Cc1ccc(S(=O)(=O)N(CC(=O)O)c2cccc(Cl)c2)cc1`, the T/C reads like this: (dose: 100.0 mg/kg/injection, schedule: Q01DX009 (ip), vehicle: Klucel (hydroxypropylcellulose) (HPC)) 100 % of control; (dose: 100.0 mg/kg/injection, schedule: Q04DX003 (ip), vehicle: Klucel (hydroxypropylcellulose) (HPC)) 100 % of control; (dose: 200.0 mg/kg/injection, schedule: Q01DX009 (ip), vehicle: Klucel (hydroxypropylcellulose) (HPC)) 100 % of control; (dose: 200.0 mg/kg/injection, schedule: Q04DX003 (ip), vehicle: Klucel (hydroxypropylcellulose) (HPC)) 104 % of control; under setting [4], 104 % of control; (dose: 400.0 mg/kg/injection, schedule: Q04DX003 (ip), vehicle: Klucel (hydroxypropylcellulose) (HPC)) 100 % of control.

Turning to `Br/C(C=Nc1ccccc1)=C\Nc1ccccc1`, the T/C was 100 % of control under setting [5] and 110 % of control under setting [7].
